In test [1] the target is T1, human NOX1 (Homo sapiens, UniProt Q9Y5S8).
T1 construct: expressed in transfected cells; host or cells: HEK293 F cells, transient transfection (pEG BacMam vector); isolated membranes; Cytosolic proteins made in E. coli
T1 sequence (Q9Y5S8 1-564): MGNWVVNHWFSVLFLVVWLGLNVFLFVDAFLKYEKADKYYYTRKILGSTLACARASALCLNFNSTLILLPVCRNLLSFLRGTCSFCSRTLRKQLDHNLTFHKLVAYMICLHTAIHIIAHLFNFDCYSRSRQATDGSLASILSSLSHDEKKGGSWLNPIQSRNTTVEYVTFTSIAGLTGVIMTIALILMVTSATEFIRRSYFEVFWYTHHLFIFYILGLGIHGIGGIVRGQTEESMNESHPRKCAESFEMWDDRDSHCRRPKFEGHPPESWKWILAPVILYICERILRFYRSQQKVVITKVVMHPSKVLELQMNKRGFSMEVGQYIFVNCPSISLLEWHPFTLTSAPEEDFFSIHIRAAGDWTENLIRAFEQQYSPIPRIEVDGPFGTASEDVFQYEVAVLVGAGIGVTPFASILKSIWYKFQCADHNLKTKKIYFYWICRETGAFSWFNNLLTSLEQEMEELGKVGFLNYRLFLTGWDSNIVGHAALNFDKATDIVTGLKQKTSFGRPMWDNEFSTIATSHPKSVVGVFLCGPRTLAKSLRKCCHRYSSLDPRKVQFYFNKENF
T1 sequence (P13498 1-195 partner): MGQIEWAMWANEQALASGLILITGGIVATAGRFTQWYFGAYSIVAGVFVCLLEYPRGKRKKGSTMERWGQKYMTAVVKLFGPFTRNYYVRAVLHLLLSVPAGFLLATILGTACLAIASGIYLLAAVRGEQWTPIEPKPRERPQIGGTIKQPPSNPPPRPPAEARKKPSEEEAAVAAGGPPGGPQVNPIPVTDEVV
Description: Human NOX1 isolated membranes, Amplex Red/horseradish peroxidase coupled assay. The settings on record: membrane-embedded, 40 μM NADPH; for IC50: read-out: IC50 on human NOXs, NOX1 (AMPLEX RED). The test is classed as biochemical. As for the experimental part: Activity assays for IC50 determinations were performed as previously described[40],[42] with modifications for covalent inhibitors. […] The estimated final protein concentrations based on the heme’s absorbance (ε414 nm = 131,000 M^–1 cm^–1) were 10–20 nM. Compounds were incubated for 1 h at 25 °C at varying concentrations, and reactions were initiated with 40 μM NADPH. Fluorescence was measured using a ClarioStar plate reader (excitation 572 nm/emission 583 nm).

The target in test [2] is T2, human MAOA (Homo sapiens, UniProt P21397).
T2 construct: made in house; host or cells: Pichia pastoris
T2 sequence (P21397 1-527): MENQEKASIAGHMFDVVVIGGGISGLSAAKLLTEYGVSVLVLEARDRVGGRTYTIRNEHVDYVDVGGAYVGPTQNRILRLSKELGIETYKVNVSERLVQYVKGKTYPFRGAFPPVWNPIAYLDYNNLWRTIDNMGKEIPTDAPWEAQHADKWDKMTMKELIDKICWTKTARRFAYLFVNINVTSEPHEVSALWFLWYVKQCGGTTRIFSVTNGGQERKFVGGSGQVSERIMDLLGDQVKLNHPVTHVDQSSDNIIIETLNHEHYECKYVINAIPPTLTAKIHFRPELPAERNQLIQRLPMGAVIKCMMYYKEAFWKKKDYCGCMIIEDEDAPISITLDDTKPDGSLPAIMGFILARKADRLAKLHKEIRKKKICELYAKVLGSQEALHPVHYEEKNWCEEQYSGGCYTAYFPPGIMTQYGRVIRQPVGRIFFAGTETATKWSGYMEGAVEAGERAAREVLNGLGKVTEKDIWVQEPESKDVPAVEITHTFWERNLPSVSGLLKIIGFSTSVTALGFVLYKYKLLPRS
Description: Purified MAOA, Amplex Red/horseradish peroxidase coupled assay. The format is biochemical. The settings on record: 70 nM MAOA, 1 mM kynuramine. Here is the method: IC50 values on human MAOA and human MAOB were determined using the Amplex Red/horseradish peroxidase coupled assay. […] Measurements were performed using a ClarioStar plate reader (excitation 572 nm and emission 583 nm) (BMG Labtech). IC50 values were obtained by fitting the percentage of inhibition versus log(inhibitor concentration) using GraphPad software 7.0. The covalent modification of the flavin upon the reaction with the propargylamine-containing inhibitors was monitored spectrophotometrically using a diode array UV/visible spectrophotometer (Agilent Technologies). […] The cofactor covalent modification was monitored over time following the shift of the enzyme-bound flavin (peaks at 370 and 456 nm) to 410 nm (ε410 = 23,500 M^–1 cm^–1) (Figure S10).

Test [3] deals with dehydrogenase domain of csNOX5. Description: NADPH depletion assay on csNOX5 dehydrogenase domain. The format is biochemical, Cylindrospermum stagnale. The following applies: 10 μM inhibitor; 1 μM purified protein, 250 μM NADPH. Here is the method: A series of derivatives were synthesized and tested at 10 μM against the dehydrogenase domain of NOX5 from Cylindrospermum stagnale (C. stagnale, CsNOX5; Figure 2B).
The NADPH depletion assay for IC50 determinations was performed as described[10] with modifications for covalent inhibitors, which require longer incubation times. Briefly, the catalytic activity was measured by monitoring the absorbance at 340 nm with a Cary 100 UV–vis spectrophotometer (Varian). A 1 μM portion of purified protein was added in a final volume of 130 μL of 50 mM HEPES pH 7.5 and supplemented with 300 μM FAD. Inhibitors were added at varying concentrations and incubated for 1 h at 25 °C.

Test [4] has as its target T3, Purified human NOX2 (Homo sapiens, UniProt P04839).
T3 construct: NOX2 was expressed as native protein in X-CGD PLB-985 cells transduced with the RD114 pseudotyped MFGS-NOX2 vector; made in house; host or cells: X-CGD PLB-985 cells transduced with MFGS-NOX2; Cytosolic proteins made in E. coli
Description: Purified human NOX2-p22phox, NADPH depletion assay. The test is classed as biochemical. The following applies: for IC50: 200 nM NOX2, 240 μM NADPH, activated. Here is the method:
The NADPH depletion assay on human NOX2 for IC50 determinations was performed as described[40],[42] with variations for covalent inhibition. Briefly, the catalytic activity was measured by monitoring the absorbance at 340 nm with a Cary 100 UV–vis spectrophotometer (Varian). A 200 nM purified NOX2-p22^phox heterodimer was added to a 200 μL reaction mix containing a 65 mM sodium phosphate buffer (pH 7.0), 50 μM FAD, 130 μM LiDS, and 1 μM recombinant p67^phox, p47^phox, and Rac1 Q61L. Inhibitors were added at varying concentrations (7 nM–200 μM) and incubated for 1 h at 25 °C. The reaction was started by the addition of 240 μM NADPH.

Entries after “also recorded” stand apart in the source; their conditions may differ.

The term IC50 denotes the concentration at which inhibition is half-maximal.

Consider `CCCNC(=O)c1ccc(Cn2nnc3c(Sc4nc5ccccc5o4)ncnc32)cc1` [Compound 8a, (4-((7-Benzo[d]oxazol-2-yl-thio)-3H-[1,2,3]triazole[4,5-d]pyrimidin-3-yl)methyl)-N-(propyl)benzamide], for which the IC50 is 32.9 ± 2.9 µM in test [1], greater than 100 µM in test [2] and 3.3 ± 0.06 µM in test [4]. In test [2], the “IC50 Purified MAOA” value is “ineffective; also recorded: Not detected”. In addition, the “% INHIBITION csNOX5 DEHYDROGENASE DOMAIN” value in test [3] worked out at 95.6 ± 0.1%.
As to `C#CCN(C)Cc1ccc(Cn2nnc3c(Sc4nc5ccccc5o4)ncnc32)cc1` [Compound 9a, N-(4-((7-(Benzo[d]oxazol-2-ylthio)-3H-[1,2,3]triazolo[4,5-d]pyrimidin-3-yl)methyl)benzyl)-N-methylprop-2-yn-1-amine], the results for the IC50 in test [1], in test [2] and in test [4] were 22 ± 6.7 µM, 59 ± 5.9 µM and 0.155 ± 0.03 µM, respectively. Further, in test [3], the “% INHIBITION csNOX5 DEHYDROGENASE DOMAIN” value came to 67.3 ± 4.6%. Moreover, the “potency on purified NOX2 relative to VAS2870 (more potent)” value in test [4] (purified NOX2) is recorded as “over 20 fold”.
Take `C#CCNC(=O)c1ccc(Cn2nnc3c(Sc4nc5ccccc5o4)ncnc32)cc1` [Compound 8b, (4-((7-Benzo[d]oxazol-2-yl-thio)-3H-[1,2,3]triazole[4,5-d]pyrimidin-3-yl)methyl)-N-(prop-2-in-1-yl)benzamide]: the “IC50 on human NOXs, NOX1 (AMPLEX RED)” value in test [1] was “inactive”. Moreover, the IC50 in test [1] is greater than 100 µM; in test [2], 41.6 ± 3.7 µM; in test [4], 20.1 ± 0.5 µM. The “% INHIBITION csNOX5 DEHYDROGENASE DOMAIN” value in test [3] was 94.6 ± 1.0%.

(Values after paper PMC11956017, “Design of Benzyl-triazolopyrimidine-Based NADPH Oxidase Inhibitors Leads to the Discovery of a Potent Dual Covalent NOX2/MAOB Inhibitor” (Journal of Medicinal Chemistry, 2025).)
